Reference: EP0112419A1, “Pharmacologically active naphthotriazole derivatives” (BEECHAM GROUP PLC, priority 1982, dated 1984)

Test system: rat passive peritoneal anaphylaxis
Experiment: Rat passive peritoneal anaphylaxis (PPA)
Format: in vivo
Details: for Concentration in peritoneal fluid as % of mean of controls (Mean ± SEM, 5-7 rats per group) Dye: Pontamine Sky Blue, OD at 625 nm; for Concentration in peritoneal fluid as % of mean of controls (Mean ± SEM, 5-7 rats per group) Histamine: fluid collected 5 min after challenge
From the text: • a) inhibit rat passive peritoneal anaphylaxis; and • b) antagonise the spasmogenic effects of slow reacting substance of anaphylaxis, SRS-A, on isolated guinea pig ileum.
Charles River Sprague Dawley male rats of 250 - 300 g. and Dunkin Hartley male white guinea pigs of 250 - 300 g. were used. v
The method has been described previously. (Ross, Janet W., Smith, H. and Spicer, Barbara A. Increased vascular permeability during passive peritoneal anaphylaxis in the rat. Int. Arch. Allergy appl. Immun., 51, 226, 1976).
Rats were sensitised by giving an intraperitoneal injection of 0.5 ml of Bordetella pertussis vaccine (4 x 10^10 organisms/ml Burroughs Wellcome, London) and a subcutaneous injection of 0.5 ml of an emulsion of 100 mg of ovalbumin (chicken egg albumin, crystallised and lyophilised, grade 3, Sigma, London) in 2 ml of isotonic saline and 3 ml of Freund's incomplete adjuvant (Difco Laboratories, Michigan, USA) .
The rats were bled by cardiac puncture, on day 18, the blood was pooled, and the serum separated, stored at -20°C and thawed only once before use.
Rats were each given an intraperitoneal injection of 2 ml of a 1:5 dilution of the rat anti-serum in isotonic saline. Two hours later 0.3 ml of a 5% solution of Pontamine Sky Blue (Raymond A. Lamb, London) in isotonic saline was injected intravenously, followed by an intraperitoneal injection of the test compound in 1 ml of saline; (control rats received 1 ml of saline); followed 30 seconds later by an intraperitoneal injection of 5 ml of Tyrode's solution containing […]/ml heparin and 0.4 mg/ml of ovalbumin. The concentrations of the compounds were quoted as those in the 6 ml of fluid injected intraperitoneally. Exactly five minutes after challenge the rats were stunned and bled and their peritoneal fluids were collected by,opening their peritoneal cavities over funnels into polycarbonate tubes in ice. The supernatants were separated from the cellular residue by centrifuging at 150 g. for five minutes and were retained for assay of dye and histamine. Any samples obviously contaminated with blood were not used for estimation of dye. Groups of at least five rats were used for each dose of compound and the treatments were randomised.
Dye was assayed within two hours by measurement of optical density (OD) at 625 nm.
For histamine assay 0.5 ml samples of the supernatants were added to 1 ml volumes of 12% trichloracetic acid and stored at -20°C. The deproteinised samples were assayed using an automated spectrofluorimetric system (Technicon Autoanalyser) by a method similar to that of Evans, D.P., Lewis, J.A. and Thomson, D.S.: (An automated fluorimetric assay for the rapid determination of histamine in biological fluids. Life Sci., 12, 327, 1973).

[1] = conc. injected i.p. 2 x 10^-5 M
[2] = conc. injected i.p. 2 x 10^-6 M
[3] = conc. injected i.p. 2 x 10^-7 M
[4] = conc. injected i.p. 2 x 10^-8 M

| SMILES | Concentration in peritoneal fluid as % of mean of controls (Mean ± SEM, 5-7 rats per group) Dye [1] | Concentration in peritoneal fluid as % of mean of controls (Mean ± SEM, 5-7 rats per group) Histamine [1] | Concentration in peritoneal fluid as % of mean of controls (Mean ± SEM, 5-7 rats per group) Dye [2] | Concentration in peritoneal fluid as % of mean of controls (Mean ± SEM, 5-7 rats per group) Histamine [2] | Concentration in peritoneal fluid as % of mean of controls (Mean ± SEM, 5-7 rats per group) Dye [3] | Concentration in peritoneal fluid as % of mean of controls (Mean ± SEM, 5-7 rats per group) Histamine [3] | Concentration in peritoneal fluid as % of mean of controls (Mean ± SEM, 5-7 rats per group) Dye [4] | Concentration in peritoneal fluid as % of mean of controls (Mean ± SEM, 5-7 rats per group) Histamine [4] |
| --- | --- | --- | --- | --- | --- | --- | --- | --- |
| CCCc1c(OCCCOc2ccc3c(c2)C(=O)c2nn[nH]c2C3=O)ccc(C(C)=O)c1O [Example 1 and 2, 6-[3-(4-Acetyl-3-hydroxy-2-n-propylphenoxy)propoxy]-4,9-dihydro-4,9-dioxo-1H-naphtho[2,3-d]-v-triazole] | 32 ± 5% | 10 ± 1% | 58 ± 8% | 27 ± 8% | 63 ± 5% | 57 ± 11% |  |  |
| CCCc1c(OCCCOc2cccc3c2C(=O)c2nn[nH]c2C3=O)ccc(C(C)=O)c1O [Example 3, 5-[3-(4-Acetyl-3-hydroxy-2-n-propylphenoxy)-pro^poxy]-4,9-dihydro-4,9-dioxo-1H-naphtho[2,3-d]-v-triazole] | 57 ± 4% | 25 ± 3% | 94 ± 8% | 62 ± 11% |  |  |  |  |
| CCCc1c(OCC(O)COc2ccc3c(c2)C(=O)c2nn[nH]c2C3=O)ccc(C(C)=O)c1O (centres unmarked) [Example 4, 6-[3-(4-Acetyl-3-hydroxy-2-n-propylphenoxy)-2-hydroxy-pronoxy]-4,9-dihydro-4,9-dioxo-1H-naphtho[2,3-d]-v-triazole] |  |  |  |  | 58 ± 4% | 38 ± 4% | 72 ± 11% | 64 ± 11% |
